According to patent US8293266B2, “Paromomycin-supplemented feed stuff for turkey and use thereof for prophylaxis of histomoniasis, reduction of the horizontal spreading of histomoniasis, and for improved weight gain and feed conversion” (Huvepharma AD, priority 2007, dated 2012):
Entries after “also recorded” stand apart in the source; their conditions may differ.

Legend:
histomoniasis [1] = details: use through the whole growth cycle; cited from earlier work
histomoniasis [2] = details: cited from earlier work
[3] = system: Histomonas meleagridis strain HNA.CO.A.L1; experiment: Example 1: turkeys inoculated intracloacally with Histomonas meleagridis, mortality and lesions; format: in vivo, turkey; details: low dose (500 ppm), mortality
histomoniasis [4] = details: 200 and 400 ppm in broilers; cited from earlier work
[5] = system: Histomonas meleagridis strain HNA.CO. A.L1; experiment: Example 2: intracloacal Histomonas meleagridis challenge, seeder and contact birds, mortality and lesions; format: in vivo, turkey; details: lowest dose (250 ppm paromomycin sulphate), seeder birds mortality

SMILES: CC[C@@]1([C@@H]2O[C@@H]([C@H]3O[C@@](O)(CO)[C@H](C)C[C@@H]3C)C[C@@H]2C)CC[C@H]([C@]2(C)CC[C@]3(C[C@H](O)[C@@H](C)[C@@H]([C@@H](C)[C@@H](OC)[C@H](C)C(=O)O)O3)O2)O1 [monensin]
- effect with respect to histomoniasis (histomoniasis [1]): no effect

SMILES: CC[C@@H](C(=O)[C@@H](C)[C@@H](O)[C@H](C)[C@@H]1O[C@@H]([C@@H](CC)C(=O)O)CC[C@@H]1C)[C@H]1O[C@]2(C=C[C@@H](O)[C@]3(CC[C@@](C)([C@H]4CC[C@](O)(CC)[C@H](C)O4)O3)O2)[C@H](C)C[C@@H]1C [salinomycin]
- effect with respect to histomoniasis (histomoniasis [1]): no effect

SMILES: N#CC(c1ccc(Cl)cc1)c1c(Cl)cc(-n2ncc(=O)[nH]c2=O)cc1Cl (stereo not drawn) [diclasuril]
- effect with respect to histomoniasis (histomoniasis [1]): no effect

SMILES: NC[C@@H]1O[C@H](O[C@H]2[C@@H](O)[C@H](O[C@@H]3[C@@H](O)[C@H](N)C[C@H](N)[C@H]3O[C@H]3O[C@H](CO)[C@@H](O)[C@H](O)[C@H]3N)O[C@@H]2CO)[C@H](N)[C@@H](O)[C@@H]1O [paromomycin]
- side effects due to the use of paromomycin (histomoniasis [2]; 1000-2000 ppm in feed (dosage exceeding 1000 ppm)): certain toxicity effects; also recorded: lesions and hypertrophy of the liver
- mortality of infected birds (histomoniasis [2]; fed continuously at 1000-2000 ppm in feed): reduced the mortality of infected birds
- protection compared to the infected untreated group [3]: significant protection
- effect on mortality and lesion scoring (histomoniasis [4]): no effect on both mortality and lesion scoring
- use in-vivo as chemotherapeutic agent in broiler chickens (histomoniasis [4]): ineffective
- protection to infection [5]: significant protection
